Assay results published in paper PMC2990756, “Quantitative High-Throughput Screening Identifies 8-Hydroxyquinolines as Cell-Active Histone Demethylase Inhibitors” (PLoS ONE, 2010).
Like-named read-outs stand apart in the source and are kept apart here.

Legend:
JMJD2E (KDM4E) = molecular target: T1, JMJD2E (KDM4E) (Homo sapiens, UniProt B2RXH2); assay: qHTS fluorescence FDH-coupled JMJD2E demethylase assay; assay type: biochemical
T1 construct: The catalytic domain of human JMJD2E (residues 1–337); His6 (N); made in house; host or cells: E. coli
T1 sequence (B2RXH2 1-337): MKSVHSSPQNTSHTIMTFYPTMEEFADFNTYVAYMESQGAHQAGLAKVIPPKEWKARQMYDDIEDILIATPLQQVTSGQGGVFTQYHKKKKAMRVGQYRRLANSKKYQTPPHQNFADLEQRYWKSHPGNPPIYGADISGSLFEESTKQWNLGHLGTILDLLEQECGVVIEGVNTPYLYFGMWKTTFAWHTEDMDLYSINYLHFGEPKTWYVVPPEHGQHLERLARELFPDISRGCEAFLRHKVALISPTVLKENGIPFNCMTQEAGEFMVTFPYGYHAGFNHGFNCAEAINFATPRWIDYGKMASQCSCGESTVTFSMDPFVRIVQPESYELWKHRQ

JMJD2E [1] = molecular target: T2, JMJD2E (Homo sapiens, UniProt B2RXH2); assay: MALDI-TOF MS demethylation assay, JMJD2E; conditions: Table S1, 2 µM JMJD2E; for MALDI-TOF Data: Span: span of the fitted curve
T2 sequence (B2RXH2 1-337): T1 sequence (B2RXH2 1-337)
Protocol: Initially, JMJD2, Fe(II), ascorbate and inhibitors were pre-incubated for 15 min prior to the addition of peptide and 2OG. The reaction was incubated for 30 min before 1∶1 quenching with methanol followed by addition of four volumes of 20 mM triammonium citrate. […] The diluted assay mixture (1 µL) from JMJD2 and PHD2 assays were mixed with 1 µL of α-cyano-4-hydroxycinnamic acid and 1 µL of FIH assay mixture was mixed with 1 µL of sinapinic acid matrix, and assessed by matrix-assisted laser desorption/ionization-time of flight (MALDI-TOF).

[2] = molecular target: T3, formaldehyde dehydrogenase (FDH) (Pseudomonas putida, UniProt P46154); assay: FDH coupling enzyme counterscreen; assay type: biochemical; conditions: Table S1, FDH counterscreen; for IC50: unit not in table, from Figure 2, read-out: qHTS Data: jmjd2e fdh IC50
T3 construct: purchased Sigma-Aldrich
T3 sequence (P46154 whole entry): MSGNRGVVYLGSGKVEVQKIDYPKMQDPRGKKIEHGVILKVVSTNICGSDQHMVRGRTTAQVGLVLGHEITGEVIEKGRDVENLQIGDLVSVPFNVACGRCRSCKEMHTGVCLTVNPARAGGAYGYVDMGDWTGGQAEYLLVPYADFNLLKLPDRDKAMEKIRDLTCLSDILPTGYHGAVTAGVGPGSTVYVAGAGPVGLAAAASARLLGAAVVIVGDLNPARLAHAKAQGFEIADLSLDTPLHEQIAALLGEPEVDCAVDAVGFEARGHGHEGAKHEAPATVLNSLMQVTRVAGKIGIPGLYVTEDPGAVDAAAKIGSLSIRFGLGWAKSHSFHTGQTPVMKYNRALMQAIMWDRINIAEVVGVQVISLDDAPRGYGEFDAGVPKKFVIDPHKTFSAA
Description: Dimethylsulfoxide certified ACS grade (DMSO) was from Fisher, Inc. HEPES buffer was obtained from Gibco. […] Black solid-bottom 1,536-well assay plates were from Greiner Bio-One (Monroe, NC).

JMJD2E [3] = molecular target: T2, JMJD2E; assay: JMJD2E FDH-coupled assay under low and high iron conditions (iron chelation profile); assay type: biochemical; set-up: The catalytic domain of human JMJD2E (residues 1–337); His6 (N); made in house; host or cells: E. coli; conditions: Table S1; for IC50: unit not in table, from Figure 2
Protocol: The prioritized compounds were also evaluated in the screening assay using two different ferrous ion concentrations (termed high iron and low iron, respectively), in order to assess their propensity for iron chelation.
The ratio of IC50 values under high iron to low iron was calculated for each compound.

[4] = Table S1, unit not in table, from Figure 2, read-out: qHTS Data: jmjd2e IC50
[5] = high iron, head says 20 µM FAS, read-out: qHTS Data: jmjd2e fas20um IC50
[6] = low iron 2.5 µM FAS, read-out: qHTS Data: jmjd2e fas2.5um IC50

CC1(C)CCC2=C(O1)c1ccccc1C(=O)C2=O [compound 50106535]
IC50 (JMJD2E (KDM4E); [4]): 3.55 µM | MALDI-TOF Data: Span (JMJD2E [1]): 91.75 | IC50 (JMJD2E [1]; read-out: MALDI-TOF Data: IC50, unit not in table, ~ values are poorly fitted): 28.6 µM

O=c1c(O)c(-c2cc(O)c(O)c(O)c2)oc2cc(O)cc(O)c12 [compound 11111488]
qHTS Data: jmjd2e fdh CurveClass [2]: Inactive | MALDI-TOF Data: Span (JMJD2E [1]): 95.03 | qHTS Data: jmjd2e fas20um CurveClass (JMJD2E [3]; high iron): Poor quality curve

O=Cc1ccc(O)c2ncccc12 [compound 26664581]
IC50 (JMJD2E (KDM4E); Figure 3, substituted 8-hydroxyquinolines against JMJD2E, read-out: IC50 /μM (qHTS IC50, FDH-coupled assay)): 3.2 µM | IC50 (JMJD2E (KDM4E); [4]): 3.16 µM | qHTS Data: jmjd2e fdh CurveClass [2]: Inactive | qHTS Data: jmjd2e fas20um CurveClass (JMJD2E [3]; high iron): Poor quality curve | IC50 (JMJD2E [3]; [5]): 56.2 µM | IC50 (JMJD2E [3]; [6]): 7.08 µM

Oc1cc2c(cc1O)C1c3ccc(O)c(O)c3OCC1(O)C2 (stereo not shown) [compound 26749470]
IC50 (JMJD2E (KDM4E); [4]): 0.71 µM | qHTS Data: jmjd2e fdh CurveClass [2]: Inactive | qHTS Data: jmjd2e fas20um CurveClass (JMJD2E [3]; high iron): Poor quality curve | IC50 (JMJD2E [3]; [5]): 14.1 µM | IC50 (JMJD2E [3]; [6]): 1.58 µM

O=C1C=CC(=O)c2c(O)cccc21 [compound 26749198]
IC50 (JMJD2E (KDM4E); [4]): 7.08 µM | qHTS Data: jmjd2e fdh CurveClass [2]: Inactive | IC50 (JMJD2E [3]; [5]): 14.1 µM | IC50 (JMJD2E [3]; [6]): 5.01 µM

CCOC(=O)C1CCN(Cc2ccc(O)c3ncccc23)CC1 [compound 850072]
IC50 (JMJD2E (KDM4E); [4]): 8.91 µM | qHTS Data: jmjd2e fdh CurveClass [2]: Inconclusive | IC50 (JMJD2E [3]; [5]): 2 µM | IC50 (JMJD2E [3]; [6]): 4.47 µM

COc1ccc(NC(=O)CC2Sc3ncnn3C2=O)cc1 (stereo not shown) [compound 7968088]
IC50 (JMJD2E (KDM4E); [4]): 2 µM | IC50 [2]: 0.28 µM | IC50 (JMJD2E [3]; [5]): 12.6 µM | IC50 (JMJD2E [3]; [6]): 1.78 µM

O=C(O)c1cccnc1C(=O)O [compound 11113416]
IC50 (JMJD2E (KDM4E); [4]): 1.78 µM | qHTS Data: jmjd2e fdh CurveClass [2]: Inactive | IC50 (JMJD2E [3]; [5]): 11.2 µM | IC50 (JMJD2E [3]; [6]): 7.94 µM

COC(=O)c1ccc(=O)c2nc3/c(=C/O)c(O)cc(=O)c3[nH]c12 [compound 26732584]
IC50 (JMJD2E (KDM4E); [4]): 8.91 µM | qHTS Data: jmjd2e fdh CurveClass [2]: Inactive | qHTS Data: jmjd2e fas20um CurveClass (JMJD2E [3]; high iron): Inconclusive | IC50 (JMJD2E [3]; [6]): 2.24 µM

Cl.NCCc1ccc(O)c(O)c1 [compound 50106387]
IC50 (JMJD2E (KDM4E); [4]): 12.6 µM | qHTS Data: jmjd2e fdh CurveClass [2]: Inactive | IC50 (JMJD2E [3]; [5]): 3.98 µM | IC50 (JMJD2E [3]; [6]): 11.2 µM

O=C(OCC1O[C@@H](OC(=O)c2cc(O)c(O)c(O)c2)[C@@H](OC(=O)c2cc(O)c(O)c(O)c2)[C@@H](OC(=O)c2cc(O)c(O)c(O)c2)[C@@H]1OC(=O)c1cc(O)c(O)c(O)c1)c1cc(O)c(O)c(O)c1 (stereo partly shown) [compound 22405492]
IC50 (JMJD2E (KDM4E); [4]): 3.16 µM | qHTS Data: jmjd2e fdh CurveClass [2]: Inactive | IC50 (JMJD2E [3]; [5]): 14.1 µM | IC50 (JMJD2E [3]; [6]): 1.12 µM

Cc1nc(-c2coc3c(O)c(O)ccc3c2=O)cs1 [compound 50110018]
IC50 (JMJD2E (KDM4E); [4]): 7.08 µM | qHTS Data: jmjd2e fdh CurveClass [2]: Poor quality curve | IC50 [2]: 17.8 µM | IC50 (JMJD2E [3]; [5]): 15.8 µM | IC50 (JMJD2E [3]; [6]): 7.08 µM

Cc1ccc(C)c(S(=O)(=O)N2CCN(Cc3ccc(O)c4ncccc34)CC2)c1 [compound 24838962]
IC50 (JMJD2E (KDM4E); [4]): 3.55 µM | qHTS Data: jmjd2e fdh CurveClass [2]: Inconclusive | qHTS Data: jmjd2e fas20um CurveClass (JMJD2E [3]; high iron): Inactive | IC50 (JMJD2E [3]; [6]): 10 µM

O=c1c(O)c(-c2ccc(O)c(O)c2)oc2c(O)c(O)cc(O)c12 [compound 26750048]
IC50 (JMJD2E (KDM4E); [4]): 2.82 µM | qHTS Data: jmjd2e fdh CurveClass [2]: Inactive | qHTS Data: jmjd2e fas20um CurveClass (JMJD2E [3]; high iron): Inactive | IC50 (JMJD2E [3]; [6]): 1.41 µM

O=c1cc2c(=O)oc3cc(O)c(O)oc3c2c(O)c1O [compound 26666750]
IC50 (JMJD2E (KDM4E); [4]): 3.98 µM | qHTS Data: jmjd2e fdh CurveClass [2]: Inactive | IC50 (JMJD2E [3]; [5]): 15.8 µM | IC50 (JMJD2E [3]; [6]): 1.78 µM

CC(C)c1ccccc1NC(=O)CNCCc1ccc(C(F)(F)F)cc1.O=C(O)C(=O)O [compound 26661422]
IC50 (JMJD2E (KDM4E); [4]): 3.16 µM | qHTS Data: jmjd2e fdh CurveClass [2]: Inactive | qHTS Data: jmjd2e fas20um CurveClass (JMJD2E [3]; high iron): Inactive | IC50 (JMJD2E [3]; [6]): 28.2 µM

COc1ccc(-c2cc(=O)n(CCC#N)[nH]2)cc1 [compound 17508964]
IC50 (JMJD2E (KDM4E); [4]): 1.78 µM | qHTS Data: jmjd2e fdh CurveClass [2]: Inactive | IC50 (JMJD2E [3]; [5]): 12.6 µM | qHTS Data: jmjd2e fas2.5um Curve comment (JMJD2E [3]; low iron 2.5 µM FAS): Inactive

COc1ccc(-n2c(C)cc(/C=N/Nc3nnc(C)n3N)c2C)cc1.Cl [compound 22416865]
IC50 (JMJD2E (KDM4E); [4]): 0.71 µM | qHTS Data: jmjd2e fdh CurveClass [2]: Poor quality curve | IC50 [2]: 28.2 µM | IC50 (JMJD2E [3]; [5]): 5.01 µM | IC50 (JMJD2E [3]; [6]): 5.01 µM

CCOC(=O)c1ccc(CC(=O)c2ccc(O)c(O)c2O)o1 [compound 24797852]
IC50 (JMJD2E (KDM4E); [4]): 3.16 µM | qHTS Data: jmjd2e fdh CurveClass [2]: Inactive | IC50 (JMJD2E [3]; [5]): 10 µM | IC50 (JMJD2E [3]; [6]): 1.41 µM

O=C1C=CC2=C3c4cc(O)c(O)cc4CC3(O)COC2=C1O (stereo not shown) [compound 26749676]
IC50 (JMJD2E (KDM4E); [4]): 6.31 µM | IC50 [2]: 11.2 µM | qHTS Data: jmjd2e fas20um CurveClass (JMJD2E [3]; high iron): Poor quality curve | IC50 (JMJD2E [3]; [5]): 17.8 µM | IC50 (JMJD2E [3]; [6]): 2 µM

CCN(CC)c1ccc(N=Cc2c(C)[nH]c3ccccc23)cc1 [compound 22412852]
IC50 (JMJD2E (KDM4E); [4]): 0.79 µM | qHTS Data: jmjd2e fdh CurveClass [2]: Inactive | IC50 (JMJD2E [3]; [5]): 7.94 µM | qHTS Data: jmjd2e fas2.5um Curve comment (JMJD2E [3]; low iron 2.5 µM FAS): Poor quality curve | IC50 (JMJD2E [3]; [6]): 12.6 µM

COc1cccc(O)c1O [compound 26749778]
IC50 (JMJD2E (KDM4E); [4]): 7.94 µM | qHTS Data: jmjd2e fdh CurveClass [2]: Inactive | IC50 (JMJD2E [3]; [5]): 15.8 µM | IC50 (JMJD2E [3]; [6]): 4.47 µM

Cc1cccc(OCC(=O)NCC(=O)N/N=C/c2ccc(O)cc2O)c1 [compound 26671311]
IC50 (JMJD2E (KDM4E); [4]): 3.16 µM | qHTS Data: jmjd2e fdh CurveClass [2]: Poor quality curve | IC50 [2]: 0.25 µM | qHTS Data: jmjd2e fas20um CurveClass (JMJD2E [3]; high iron): Inactive | IC50 (JMJD2E [3]; [6]): 4.47 µM

Cl.Nc1ccn([C@@H]2O[C@H](CO)[C@@H](O)[C@@H]2O)c(=O)n1 [compound 50106080]
IC50 (JMJD2E (KDM4E); [4]): 0.89 µM | qHTS Data: jmjd2e fdh CurveClass [2]: Inactive | IC50 (JMJD2E [3]; [5]): 7.94 µM | qHTS Data: jmjd2e fas2.5um Curve comment (JMJD2E [3]; low iron 2.5 µM FAS): Inactive

COc1ccccc1NC(=S)NNC(=O)c1nn(C)c(C)c1Br [compound 22404294]
IC50 (JMJD2E (KDM4E); [4]): 7.94 µM | qHTS Data: jmjd2e fdh CurveClass [2]: Inactive | IC50 (JMJD2E [3]; [5]): 2.51 µM | IC50 (JMJD2E [3]; [6]): 3.98 µM

O=C(/C=C/c1ccccc1)NC(=S)NNC(=O)c1cnccn1 [compound 26725782]
IC50 (JMJD2E (KDM4E); [4]): 8.91 µM | qHTS Data: jmjd2e fdh CurveClass [2]: Poor quality curve | IC50 [2]: 35.5 µM | IC50 (JMJD2E [3]; [5]): 7.08 µM | IC50 (JMJD2E [3]; [6]): 7.08 µM

O=C(CC1Sc2ncnn2C1=O)Nc1ccc(Br)cc1 (stereo not shown) [compound 7966079]
IC50 (JMJD2E (KDM4E); [4]): 2.24 µM | IC50 [2]: 0.28 µM | IC50 (JMJD2E [3]; [5]): 1 µM | IC50 (JMJD2E [3]; [6]): 2 µM

O=C1CC(Sc2ncn[nH]2)C(=O)N1c1ccccc1 (stereo not shown) [compound 14730480]
IC50 (JMJD2E (KDM4E); [4]): 2.24 µM | IC50 [2]: 0.32 µM | qHTS Data: jmjd2e fas20um CurveClass (JMJD2E [3]; high iron): Inactive | IC50 (JMJD2E [3]; [6]): 2.51 µM

NCC(O)c1ccc(O)c(O)c1.O=C(O)C(O)C(O)C(=O)O (stereo not shown) [compound 50105780]
IC50 (JMJD2E (KDM4E); [4]): 12.6 µM | qHTS Data: jmjd2e fdh CurveClass [2]: Inactive | IC50 (JMJD2E [3]; [5]): 2 µM | IC50 (JMJD2E [3]; [6]): 4.47 µM

CN1CC[C@]2(C)c3cc(O)ccc3N(C)[C@@H]12 [compound 11112885]
IC50 (JMJD2E (KDM4E); [4]): 2.24 µM | qHTS Data: jmjd2e fdh CurveClass [2]: Inconclusive | IC50 (JMJD2E [3]; [5]): 7.08 µM | IC50 (JMJD2E [3]; [6]): 8.91 µM
